Where two headings read alike, the source gives them in different places. Numbered stars: 1 amine (or outer) side, 2 acyl side, 3 side chain; on linkers, the order of the positions; unused ones are H or OH. Bridge positions count the residues as written; N and C are the ends. Peptide text beside a SMILES is read from it. * marks the point of attachment. C20 diacid = O=C(O)CCCCCCCCCCCCCCCCCCC(=O)*; γGlu = O=C(O)[C@H](CCC(=O)[*:2])N[*:1]
How the values were obtained:
[1] = target: T1, hCTR (Homo sapiens, UniProt P30988); assay: cAMP-responsive element luciferase reporter assay, human CTR; assay type: cell-based; details: luciferase (human receptor assay)
T1 sequence (P30988 25-474): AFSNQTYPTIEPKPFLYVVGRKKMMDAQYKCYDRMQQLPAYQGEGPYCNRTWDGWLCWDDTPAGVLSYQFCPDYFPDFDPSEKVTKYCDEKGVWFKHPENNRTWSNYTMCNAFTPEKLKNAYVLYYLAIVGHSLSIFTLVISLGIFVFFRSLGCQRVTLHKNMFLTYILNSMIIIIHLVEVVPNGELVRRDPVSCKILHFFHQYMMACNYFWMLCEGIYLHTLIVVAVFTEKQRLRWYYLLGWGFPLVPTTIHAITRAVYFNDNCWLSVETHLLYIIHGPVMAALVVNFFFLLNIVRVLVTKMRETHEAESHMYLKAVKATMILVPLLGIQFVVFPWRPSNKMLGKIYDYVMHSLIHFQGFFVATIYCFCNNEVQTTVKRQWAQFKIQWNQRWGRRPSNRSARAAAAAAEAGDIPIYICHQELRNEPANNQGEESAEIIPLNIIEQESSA

[2] = target: T2, rat CTR (Rattus norvegicus, UniProt P32214); assay: cAMP FlashPlate assay, rat CTR; assay type: cell-based; details: cAMP (rat receptor assay)
T2 construct: expressed in transfected cells; host or cells: BHK tk-ts 13, transient (FuGENE 6)
T2 sequence (P32214 25-479 isoform P32214-2 limits assumed): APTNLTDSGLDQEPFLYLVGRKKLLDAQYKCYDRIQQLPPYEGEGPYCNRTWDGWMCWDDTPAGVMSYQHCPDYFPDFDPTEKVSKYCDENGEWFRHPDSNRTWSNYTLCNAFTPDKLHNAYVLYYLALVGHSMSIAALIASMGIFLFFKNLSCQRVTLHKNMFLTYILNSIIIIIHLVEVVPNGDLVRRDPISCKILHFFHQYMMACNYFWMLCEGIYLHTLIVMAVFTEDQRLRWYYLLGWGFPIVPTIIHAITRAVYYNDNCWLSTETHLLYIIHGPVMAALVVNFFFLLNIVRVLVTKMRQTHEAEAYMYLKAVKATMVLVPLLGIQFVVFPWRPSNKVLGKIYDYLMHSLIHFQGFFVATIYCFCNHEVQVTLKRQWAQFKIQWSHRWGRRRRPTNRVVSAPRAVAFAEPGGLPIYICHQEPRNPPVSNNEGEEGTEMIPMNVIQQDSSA

[3] = target: T3, rat AMY3R (Rattus norvegicus, UniProt P32214+Q9JJ73); assay: cAMP FlashPlate assay, rat AMY3R; assay type: cell-based; details: for EC50: cAMP (rat receptor assay); for ratio rCTR/rAMY3R: ratio of cAMP EC50 values
T3 construct: expressed in transfected cells; host or cells: BHK tk-ts 13, transient co-transfection (FuGENE 6)
T3 sequence (P32214 25-479 isoform P32214-2 limits assumed): T2 sequence (P32214 25-479 isoform P32214-2 limits assumed)
T3 sequence (Q9JJ73 23-147 partner): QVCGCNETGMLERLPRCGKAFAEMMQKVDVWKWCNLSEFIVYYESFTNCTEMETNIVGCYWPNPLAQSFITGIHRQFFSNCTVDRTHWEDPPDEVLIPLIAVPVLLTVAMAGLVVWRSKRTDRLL

[4] = system: rats; assay: Acute food intake in rats; assay type: in vivo, rat; details: single sc injection of 30 nmol/kg, relative to vehicle, mean ± SEM, n = 5–7 per group
[5] = Tables S12 and S14, read-out: hCTR pEC50 (converted)
[6] = BHK cells stably expressing hCTR and CRE-luciferase, 3 h, 37 °C, 10% FBS, read-out: hCTR EC50
[7] = Tables S12 and S14, read-out: rCTR pEC50 (converted)
[8] = transiently transfected BHK tk-ts 13 cells, FlashPlate, 30 min room temperature, 2% HSA, read-out: rCTR EC50
[9] = Tables S12 and S14, read-out: rAMY3R pEC50 (converted)
[10] = transiently transfected BHK tk-ts 13 cells, FlashPlate, 30 min room temperature, 2% HSA, read-out: rAMY3R EC50

CC[C@H](C)[C@H](NC(=O)[C@H](C)NC(=O)CNC(=O)[C@H](Cc1ccccc1)NC(=O)[C@H](CC(N)=O)NC(=O)[C@@H]1CCCN1C(=O)[C@H](CO)NC(=O)[C@H](CO)NC(=O)[C@H](Cc1c[nH]cn1)NC(=O)[C@H](CCCNC(=N)N)NC(=O)[C@H](CC(C)C)NC(=O)[C@H](Cc1ccccc1)NC(=O)[C@H](CC(N)=O)NC(=O)[C@H](C)NC(=O)[C@H](CC(C)C)NC(=O)[C@H](CCCNC(=N)N)NC(=O)[C@H](CCC(N)=O)NC(=O)[C@@H](NC(=O)[C@H](C)NC(=O)[C@@H]1CSSC[C@H](NC(=O)[C@H](CCCCN)NC(=O)CC[C@H](NC(=O)CCCCCCCCCCCCCCCCCCC(=O)O)C(=O)O)C(=O)N[C@@H](CC(N)=O)C(=O)N[C@@H]([C@@H](C)O)C(=O)N[C@@H](C)C(=O)N[C@@H]([C@@H](C)O)C(=O)N1)[C@@H](C)O)C(=O)N1CCC[C@H]1C(=O)N[C@@H](CO)C(=O)N[C@@H](CO)C(=O)N[C@H](C(=O)N1CCC[C@H]1C(=O)N[C@H](C(=O)NCC(=O)N[C@@H](CO)C(=O)N[C@@H](CCC(=O)O)C(=O)N[C@H](C(=O)N[C@@H](Cc1ccc(O)cc1)C(N)=O)[C@@H](C)O)C(C)C)[C@@H](C)O [Peptide 11] ({C20 diacid-γGlu}-KCNTATCATQRLANFLRHSSPNFGAIPSSTPVGSETY-NH2; disulfide 2-7)
EC50 [1, 5]: 2 nM | EC50 [1, 6]: 1.99 nM | EC50 [2, 7]: 16.2 nM | EC50 [2, 8]: 16.2 nM | EC50 [3, 9]: 1.29 nM | EC50 [3, 10]: 1.29 nM | ratio rCTR/rAMY3R [3]: 13

CC[C@H](C)[C@H](NC(=O)[C@H](C)NC(=O)CNC(=O)[C@H](Cc1ccccc1)NC(=O)[C@H](CC(N)=O)NC(=O)[C@@H]1CCCN1C(=O)[C@H](CO)NC(=O)[C@H](CO)NC(=O)[C@H](Cc1c[nH]cn1)NC(=O)[C@H](CCCNC(=N)N)NC(=O)[C@H](CC(C)C)NC(=O)[C@H](Cc1ccccc1)NC(=O)[C@H](CCC(=O)O)NC(=O)[C@H](C)NC(=O)[C@H](CC(C)C)NC(=O)[C@H](CCCNC(=N)N)NC(=O)[C@H](CCC(N)=O)NC(=O)[C@@H](NC(=O)[C@H](C)NC(=O)[C@@H]1CSSC[C@H](NC(=O)[C@H](CCCCN)NC(=O)CC[C@H](NC(=O)CCCCCCCCCCCCCCCCCCC(=O)O)C(=O)O)C(=O)N[C@@H](CC(N)=O)C(=O)N[C@@H]([C@@H](C)O)C(=O)N[C@@H](C)C(=O)N[C@@H]([C@@H](C)O)C(=O)N1)[C@@H](C)O)C(=O)N1CCC[C@H]1C(=O)N[C@@H](CO)C(=O)N[C@@H](CO)C(=O)N[C@H](C(=O)N[C@@H](CC(N)=O)C(=O)N[C@H](C(=O)NCC(=O)N1CCC[C@H]1C(=O)N[C@@H](CC(N)=O)C(=O)N[C@H](C(=O)N[C@@H](Cc1ccc(O)cc1)C(N)=O)[C@@H](C)O)C(C)C)[C@@H](C)O [Peptide 12] ({C20 diacid-γGlu}-KCNTATCATQRLAEFLRHSSPNFGAIPSSTNVGPNTY-NH2; disulfide 2-7)
EC50 [1, 5]: 0.316 nM | EC50 [1, 6]: 0.314 nM | Acute food intake reduction 24–48 h [4]: 7 ± 7%

CC[C@H](C)[C@H](NC(=O)[C@H](C)NC(=O)CNC(=O)[C@H](Cc1ccccc1)NC(=O)[C@H](CC(N)=O)NC(=O)[C@@H]1CCCN1C(=O)[C@H](CO)NC(=O)[C@H](CO)NC(=O)[C@H](Cc1c[nH]cn1)NC(=O)[C@H](CCCNC(=N)N)NC(=O)[C@H](CC(C)C)NC(=O)[C@H](Cc1ccccc1)NC(=O)[C@H](CC(N)=O)NC(=O)[C@H](C)NC(=O)[C@H](CC(C)C)NC(=O)[C@H](CCCNC(=N)N)NC(=O)[C@H](CCC(N)=O)NC(=O)[C@@H](NC(=O)[C@H](C)NC(=O)[C@@H]1CSSC[C@H](NC(=O)[C@H](CCCCN)NC(=O)CC[C@H](NC(=O)CCCCCCCCCCCCCCCCCCC(=O)O)C(=O)O)C(=O)N[C@@H](CC(N)=O)C(=O)N[C@@H]([C@@H](C)O)C(=O)N[C@@H](C)C(=O)N[C@@H]([C@@H](C)O)C(=O)N1)[C@@H](C)O)C(=O)N1CCC[C@H]1C(=O)N[C@@H](CO)C(=O)N[C@@H](CO)C(=O)N[C@H](C(=O)N[C@@H](CC(N)=O)C(=O)N[C@H](C(=O)NCC(=O)N[C@@H](CCCNC(=N)N)C(=O)N[C@@H](CC(N)=O)C(=O)N[C@H](C(=O)N[C@@H](Cc1ccc(O)cc1)C(N)=O)[C@@H](C)O)C(C)C)[C@@H](C)O [Peptide 16]
hCTR pEC50 ([1]; Tables S12 and S14): 8.60 | Acute food intake reduction 0–24 h [4]: 32 ± 4% | Acute food intake reduction 24–48 h [4]: 4 ± 5%

CC[C@H](C)[C@H](NC(=O)[C@H](C)NC(=O)CNC(=O)[C@H](Cc1ccccc1)NC(=O)[C@H](CC(N)=O)NC(=O)[C@@H]1CCCN1C(=O)[C@H](CO)NC(=O)[C@H](CO)NC(=O)[C@H](Cc1c[nH]cn1)NC(=O)[C@H](CCCNC(=N)N)NC(=O)[C@H](CC(C)C)NC(=O)[C@H](Cc1ccccc1)NC(=O)[C@H](CC(N)=O)NC(=O)[C@H](C)NC(=O)[C@H](CC(C)C)NC(=O)[C@H](CCCNC(=N)N)NC(=O)[C@H](CCC(N)=O)NC(=O)[C@@H](NC(=O)[C@H](C)NC(=O)[C@@H]1CSSC[C@H](NC(=O)[C@H](CCCCN)NC(=O)CC[C@H](NC(=O)CCCCCCCCCCCCCCCCCCC(=O)O)C(=O)O)C(=O)N[C@@H](CC(N)=O)C(=O)N[C@@H]([C@@H](C)O)C(=O)N[C@@H](C)C(=O)N[C@@H]([C@@H](C)O)C(=O)N1)[C@@H](C)O)C(=O)N1CCC[C@H]1C(=O)N[C@@H](CO)C(=O)N[C@@H](CO)C(=O)N[C@H](C(=O)N[C@@H](CC(N)=O)C(=O)N[C@H](C(=O)NCC(=O)N[C@@H](Cc1c[nH]cn1)C(=O)N[C@@H](CC(N)=O)C(=O)N[C@H](C(=O)N[C@@H](Cc1ccc(O)cc1)C(N)=O)[C@@H](C)O)C(C)C)[C@@H](C)O [Peptide 17]
EC50 [1, 5]: 2.51 nM | EC50 [1, 6]: 2.49 nM | EC50 [2, 7]: 17 nM | EC50 [2, 8]: 16.8 nM | EC50 [3, 9]: 0.933 nM | EC50 [3, 10]: 0.926 nM | ratio rCTR/rAMY3R [3]: 18

CC[C@H](C)[C@H](NC(=O)[C@H](C)NC(=O)CNC(=O)[C@H](Cc1ccccc1)NC(=O)[C@H](CC(N)=O)NC(=O)[C@@H]1CCCN1C(=O)[C@H](CO)NC(=O)[C@H](CO)NC(=O)[C@H](Cc1c[nH]cn1)NC(=O)[C@H](CCCNC(=N)N)NC(=O)[C@H](CC(C)C)NC(=O)[C@H](Cc1ccccc1)NC(=O)[C@H](CC(N)=O)NC(=O)[C@H](C)NC(=O)[C@H](CC(C)C)NC(=O)[C@H](CCCNC(=N)N)NC(=O)[C@H](CCC(N)=O)NC(=O)[C@@H](NC(=O)[C@H](C)NC(=O)[C@@H]1CSSC[C@H](NC(=O)[C@H](CCCNC(=N)N)NC(=O)CNC(=O)CC[C@H](NC(=O)CCCCCCCCCCCCCCCCCCC(=O)O)C(=O)O)C(=O)N[C@@H](CC(N)=O)C(=O)N[C@@H]([C@@H](C)O)C(=O)N[C@@H](C)C(=O)N[C@@H]([C@@H](C)O)C(=O)N1)[C@@H](C)O)C(=O)N1CCC[C@H]1C(=O)N[C@@H](CO)C(=O)N[C@@H](CO)C(=O)N[C@H](C(=O)N[C@@H](CC(N)=O)C(=O)N[C@H](C(=O)NCC(=O)N[C@@H](CO)C(=O)N[C@@H](Cc1c[nH]cn1)C(=O)N[C@H](C(=O)N[C@@H](Cc1ccc(O)cc1)C(N)=O)[C@@H](C)O)C(C)C)[C@@H](C)O [Peptide 19] ({C20 diacid-γGlu}-GRCNTATCATQRLANFLRHSSPNFGAIPSSTNVGSHTY-NH2; disulfide 3-8)
hCTR pEC50 ([1]; Tables S12 and S14): 8.88 | Acute food intake reduction 24–48 h [4]: 6 ± 7%

Reference: publication PMC11284788, “NN1213 – A Potent, Long-Acting, and Selective Analog of Human Amylin” (Journal of Medicinal Chemistry, 2024)
